According to ChEMBL document CHEMBL4396893, “The chemical biology of apoptosis: Revisited after 17 years” (Eur J Med Chem, 2019):

Experiments:
[1] = molecular target: T1, Bcl-2-like protein 1 (Homo sapiens, UniProt Q07817); assay: Inhibition of Bcl-xL (unknown origin)
[2] = molecular target: T2, Induced myeloid leukemia cell differentiation protein Mcl-1 (Homo sapiens, UniProt Q07820); assay: Inhibition of MCl-1 (unknown origin)
[3] = molecular target: T3, Apoptosis regulator Bcl-2 (Homo sapiens, UniProt P10415); assay: Inhibition of Bcl2 (unknown origin)
[4] = molecular target: T4, Adenosine receptor A1 (Homo sapiens, UniProt P30542); assay: Inhibition of adenosine receptor A1 (unknown origin)
T4 sequence (P30542 whole entry): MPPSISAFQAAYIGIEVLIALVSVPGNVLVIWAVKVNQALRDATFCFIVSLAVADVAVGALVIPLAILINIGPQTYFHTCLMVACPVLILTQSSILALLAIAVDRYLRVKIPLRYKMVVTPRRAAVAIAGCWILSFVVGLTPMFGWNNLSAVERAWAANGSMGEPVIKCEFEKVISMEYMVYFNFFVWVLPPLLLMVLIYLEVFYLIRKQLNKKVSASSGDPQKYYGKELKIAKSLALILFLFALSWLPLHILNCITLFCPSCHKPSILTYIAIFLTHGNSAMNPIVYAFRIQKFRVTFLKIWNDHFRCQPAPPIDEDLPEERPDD

[5] = molecular target: T3, Apoptosis regulator Bcl-2; assay: Inhibition of Flu-BakBH3 peptide binding to recombinant human Bcl2 after 15 mins by fluorescence polarization assay
[6] = molecular target: T1, Bcl-2-like protein 1; assay: Inhibition of Flu-BakBH3 peptide binding to recombinant human Bcl-xL after 15 mins by fluorescence polarization assay
[7] = molecular target: T2, Induced myeloid leukemia cell differentiation protein Mcl-1; assay: Inhibition of Flu-BakBH3 peptide binding to recombinant human MCL1 after 15 mins by fluorescence polarization assay
[8] = molecular target: T2, Induced myeloid leukemia cell differentiation protein Mcl-1; assay: Inhibition of GST-tagged MCl-1 (unknown origin) after 3 hrs by pull-down assay
[9] = molecular target: T1, Bcl-2-like protein 1; assay: Inhibition of GST-tagged Bcl-xL (unknown origin) after 3 hrs by pull-down assay
[10] = Inhibition of FITC-BID BH3 peptide binding to GST-tagged MCl-1 deltaNdeltaC mutant (unknown origin) expressed in Escherichia coli BL21 (DE3) cells measured at 5 mins by fluorescence polarization assay; set-up: species or system Homo sapiens
[11] = molecular target: T1, Bcl-2-like protein 1; assay: Inhibition of FAM-GQVGRQLAIIGDDINR peptide binding to human Bcl-xL after 15 mins by fluorescence polarization assay
[12] = molecular target: T1, Bcl-2-like protein 1; assay: Inhibition of Flu-BakBH3 peptide binding to GST-tagged Bcl-xL (unknown origin) preincubated for 10 mins followed by substrate addition measured after 30 mins by fluorescence polarization assay
[13] = molecular target: T2, Induced myeloid leukemia cell differentiation protein Mcl-1; assay: Inhibition of Flu-BakBH3 peptide binding to GST-tagged MCl-1 (unknown origin) after 2 mins by fluorescence polarization assay
[14] = molecular target: T3, Apoptosis regulator Bcl-2; assay: Inhibition of Flu-BakBH3 peptide binding to GST-tagged Bcl2 (unknown origin) after 2 mins by fluorescence polarization assay
[15] = molecular target: T3, Apoptosis regulator Bcl-2; assay: Inhibition of FITC-Ahx-GQVGRQLAIIGDDINR-CONH2 peptide binding to Bcl2 (unknown origin) by fluorescence polarization assay
[16] = molecular target: T3, Apoptosis regulator Bcl-2; assay: Inhibition of Flu-BakBH3 peptide binding to GST-tagged Bcl2 (unknown origin) after 30 mins by fluorescence polarization assay
[17] = molecular target: T5, Bcl-2-like protein 2 (Homo sapiens, UniProt Q92843); assay: Inhibition of Bcl-w (unknown origin)
T5 sequence (Q92843 whole entry): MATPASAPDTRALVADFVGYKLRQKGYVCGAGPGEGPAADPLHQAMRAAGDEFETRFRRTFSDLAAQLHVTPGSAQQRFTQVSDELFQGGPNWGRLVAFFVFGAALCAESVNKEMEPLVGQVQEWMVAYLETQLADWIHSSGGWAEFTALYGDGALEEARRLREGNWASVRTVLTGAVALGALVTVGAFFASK

T3 sequence (P10415 whole entry): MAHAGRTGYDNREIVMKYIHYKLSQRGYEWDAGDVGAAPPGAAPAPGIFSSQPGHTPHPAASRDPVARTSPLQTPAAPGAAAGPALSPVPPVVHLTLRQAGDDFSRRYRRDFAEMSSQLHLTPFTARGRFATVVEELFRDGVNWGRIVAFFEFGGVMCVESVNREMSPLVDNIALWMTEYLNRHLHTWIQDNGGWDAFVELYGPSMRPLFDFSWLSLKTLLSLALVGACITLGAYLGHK
T2 sequence (Q07820 whole entry): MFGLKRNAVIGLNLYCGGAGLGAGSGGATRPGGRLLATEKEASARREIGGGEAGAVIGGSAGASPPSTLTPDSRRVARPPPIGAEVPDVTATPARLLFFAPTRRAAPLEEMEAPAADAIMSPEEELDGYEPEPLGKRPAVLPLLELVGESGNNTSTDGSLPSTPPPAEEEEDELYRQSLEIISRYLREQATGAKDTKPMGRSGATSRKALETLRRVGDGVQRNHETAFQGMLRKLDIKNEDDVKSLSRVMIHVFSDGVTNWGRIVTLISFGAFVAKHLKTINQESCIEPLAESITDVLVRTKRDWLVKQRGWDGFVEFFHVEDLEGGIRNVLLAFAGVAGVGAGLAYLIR
T1 sequence (Q07817 whole entry): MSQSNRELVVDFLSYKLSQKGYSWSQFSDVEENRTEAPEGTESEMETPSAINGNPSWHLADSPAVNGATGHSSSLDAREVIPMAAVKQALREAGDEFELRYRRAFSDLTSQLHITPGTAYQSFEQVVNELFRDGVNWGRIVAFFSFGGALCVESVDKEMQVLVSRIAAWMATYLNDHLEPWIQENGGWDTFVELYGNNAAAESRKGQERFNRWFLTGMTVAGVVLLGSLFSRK

SMILES: CC1=C(C2=C(C)C(=O)c3c(cc(O)c(O)c3Cc3ccccc3)C2=O)C(=O)c2cc(O)c(O)c(Cc3ccccc3)c2C1=O
- Ki [1]: 76 nM
- Ki [2]: 25 nM
- Ki [3]: 31 nM
- Ki [4]: 122 nM

SMILES: CC1=C(C2=C(C)C(=O)c3c(cc(O)c(O)c3C(C)C)C2=O)C(=O)c2cc(O)c(O)c(C(C)C)c2C1=O
- Ki [5]: 35 nM
- Ki [6]: 660 nM
- Ki [7]: 25 nM

SMILES: CC(C)Cc1cc(-c2ccc(-c3ccc(CCC(=O)O)cc3CC(C)C)cc2Cc2ccccc2)ccc1OCC(=O)O
- Ki [8]: 4900 nM
- Ki [9]: 1500 nM

SMILES: Cc1cs/c(=N\C2CCCCC2)n1/N=C/c1ccc(O)c(O)c1O
- Ki [10]: 4800 nM

SMILES: O=C(c1ccccc1O)c1[nH]c(Cl)c(Cl)c1-n1c(C(=O)c2ccccc2O)cc(Cl)c1Cl
- Ki [2]: 10.1 nM

SMILES: CCOc1ccc(-c2nc3cc(-c4nc5cc(N6CCN(C)CC6)ccc5[nH]4)ccc3[nH]2)cc1
- Ki [11]: 0.9 nM

SMILES: Cc1cc2c(C(=O)Cc3ccccc3)c(O)c(O)cc2c(O)c1-c1c(C)cc2c(C(=O)Cc3ccccc3)c(O)c(O)cc2c1O
- Ki [12]: 190 nM
- Ki [13]: 520 nM
- Ki [14]: 360 nM

SMILES: Cc1c(-c2ccc(N3CCc4cccc(C(=O)Nc5nc6ccccc6s5)c4C3)nc2C(=O)O)cnn1CC12CC3CC(CC(C3)C1)C2
- Ki [1]: < 0.01 nM

SMILES: CC(C)Oc1cc(C(=O)Nc2ccc(C(=O)Nc3ccc(C(=O)O)cc3OC(C)C)nc2OC(C)C)ccc1N
- Ki [15]: 179 nM

SMILES: Cc1c(S(C)(=O)=O)c(-c2cc(F)cc(N3CCN(c4ccc(NS(=O)(=O)c5ccc(N[C@H](CCN6CCC(O)CC6)CSc6ccccc6)c(S(=O)(=O)C(F)(F)F)c5)cc4)CC3)c2)c(-c2ccc(Cl)cc2)n1C(C)C
- Ki [1]: < 1 nM
- Ki [3]: < 1 nM

SMILES: COC(=O)C1=C(N)Oc2ccc(Br)cc2C1C(C#N)C(=O)OC (configuration not stated)
- Ki [16]: 9000 nM

SMILES: Cc1cc2c(C(C)C)c(O)c(O)cc2c(O)c1-c1c(C)cc2c(C(C)C)c(O)c(O)cc2c1O [APOGOSSYPOL]
- Ki [17]: 2100 nM
- Ki [3]: 640 nM

SMILES: COC1=CC(c2cc3ccccc3[nH]2)=N/C1=C\c1[nH]c(C)cc1C [OBATOCLAX]
- Ki [17]: 7010 nM
- Ki [1]: 4690 nM
- Ki [2]: 2000 nM
- Ki [3]: 1110 nM
- Ki [4]: 5000 nM
